How the values were obtained:
Test in all cases: Kinobeads competition binding, L-363 cell lysate
Set-up in all cases: endogenous in cells
Conditions in all cases: 10 μM free compound, L-363 lysate
CDK2 = CDK2 (Homo sapiens, UniProt P24941)
How it was run: (§1)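 MG132-pretreated (20 μM, 3 h) L-363 lysate; 10 μM cpd vs DMSO; immobilized-cpd bead capture; SDS-PAGE, tryptic digest, iTRAQ 114/117; LC-MS/MS reporter quant.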

TEC = molecular target: T1, TEC (Homo sapiens, UniProt P42680)
T1 sequence (P42680 1-631): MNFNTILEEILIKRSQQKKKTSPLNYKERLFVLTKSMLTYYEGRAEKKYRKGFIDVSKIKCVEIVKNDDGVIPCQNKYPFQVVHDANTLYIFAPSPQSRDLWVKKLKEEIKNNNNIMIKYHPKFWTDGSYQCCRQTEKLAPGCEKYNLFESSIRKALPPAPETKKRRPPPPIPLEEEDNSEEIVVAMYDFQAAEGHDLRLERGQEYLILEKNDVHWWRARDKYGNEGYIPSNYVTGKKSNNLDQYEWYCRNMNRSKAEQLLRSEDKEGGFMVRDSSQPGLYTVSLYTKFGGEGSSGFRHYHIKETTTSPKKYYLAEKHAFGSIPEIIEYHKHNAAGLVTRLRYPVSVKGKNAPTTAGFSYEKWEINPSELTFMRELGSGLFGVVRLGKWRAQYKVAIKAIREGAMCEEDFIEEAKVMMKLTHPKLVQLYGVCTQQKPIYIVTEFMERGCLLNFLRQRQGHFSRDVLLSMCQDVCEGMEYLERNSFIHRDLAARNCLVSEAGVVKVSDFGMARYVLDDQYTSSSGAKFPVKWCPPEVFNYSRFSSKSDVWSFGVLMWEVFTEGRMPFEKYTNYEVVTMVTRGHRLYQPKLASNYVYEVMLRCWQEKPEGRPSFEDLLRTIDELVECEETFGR
How it was run: as §1

MARK3 = MARK3 (Homo sapiens, UniProt P27448)
MARK3, sequence (P27448 whole entry): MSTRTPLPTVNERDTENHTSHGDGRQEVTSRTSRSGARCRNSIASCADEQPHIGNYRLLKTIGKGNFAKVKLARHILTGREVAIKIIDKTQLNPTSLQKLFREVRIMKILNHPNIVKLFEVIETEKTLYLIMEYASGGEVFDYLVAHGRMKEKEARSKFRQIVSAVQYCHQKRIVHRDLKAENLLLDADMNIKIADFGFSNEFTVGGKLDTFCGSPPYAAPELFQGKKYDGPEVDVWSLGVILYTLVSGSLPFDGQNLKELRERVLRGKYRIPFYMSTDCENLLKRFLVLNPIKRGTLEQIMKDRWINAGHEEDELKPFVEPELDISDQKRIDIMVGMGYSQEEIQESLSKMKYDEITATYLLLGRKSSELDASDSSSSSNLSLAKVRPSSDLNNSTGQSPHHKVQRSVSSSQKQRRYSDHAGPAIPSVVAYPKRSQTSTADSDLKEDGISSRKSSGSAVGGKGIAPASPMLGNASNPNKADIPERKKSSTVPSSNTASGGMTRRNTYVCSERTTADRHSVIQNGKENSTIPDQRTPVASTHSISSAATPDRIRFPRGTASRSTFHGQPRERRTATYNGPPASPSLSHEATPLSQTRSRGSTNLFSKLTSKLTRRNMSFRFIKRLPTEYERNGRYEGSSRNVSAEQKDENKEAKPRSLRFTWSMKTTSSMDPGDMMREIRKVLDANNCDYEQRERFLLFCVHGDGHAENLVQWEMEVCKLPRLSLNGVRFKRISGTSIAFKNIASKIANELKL
How it was run: as §1

PLK1 = PLK1 (Homo sapiens, UniProt P53350)
PLK1, sequence (P53350 whole entry): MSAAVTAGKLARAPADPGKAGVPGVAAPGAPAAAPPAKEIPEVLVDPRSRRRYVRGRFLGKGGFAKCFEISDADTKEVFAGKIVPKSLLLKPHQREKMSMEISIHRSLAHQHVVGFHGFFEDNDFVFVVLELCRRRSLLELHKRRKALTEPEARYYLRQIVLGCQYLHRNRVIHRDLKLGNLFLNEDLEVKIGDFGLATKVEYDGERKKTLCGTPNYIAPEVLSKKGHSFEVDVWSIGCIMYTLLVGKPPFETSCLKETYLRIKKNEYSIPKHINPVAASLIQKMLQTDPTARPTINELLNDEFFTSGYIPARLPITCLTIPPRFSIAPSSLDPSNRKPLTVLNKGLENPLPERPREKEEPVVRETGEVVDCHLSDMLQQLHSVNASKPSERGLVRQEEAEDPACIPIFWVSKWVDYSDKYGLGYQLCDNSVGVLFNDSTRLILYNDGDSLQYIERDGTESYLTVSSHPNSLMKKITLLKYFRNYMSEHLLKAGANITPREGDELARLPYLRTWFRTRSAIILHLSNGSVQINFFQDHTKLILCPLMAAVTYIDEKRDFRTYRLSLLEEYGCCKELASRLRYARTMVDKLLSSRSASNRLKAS
How it was run: as §1

CHK1 = CHK1 (Homo sapiens, UniProt O14757)
CHK1, sequence (O14757 whole entry): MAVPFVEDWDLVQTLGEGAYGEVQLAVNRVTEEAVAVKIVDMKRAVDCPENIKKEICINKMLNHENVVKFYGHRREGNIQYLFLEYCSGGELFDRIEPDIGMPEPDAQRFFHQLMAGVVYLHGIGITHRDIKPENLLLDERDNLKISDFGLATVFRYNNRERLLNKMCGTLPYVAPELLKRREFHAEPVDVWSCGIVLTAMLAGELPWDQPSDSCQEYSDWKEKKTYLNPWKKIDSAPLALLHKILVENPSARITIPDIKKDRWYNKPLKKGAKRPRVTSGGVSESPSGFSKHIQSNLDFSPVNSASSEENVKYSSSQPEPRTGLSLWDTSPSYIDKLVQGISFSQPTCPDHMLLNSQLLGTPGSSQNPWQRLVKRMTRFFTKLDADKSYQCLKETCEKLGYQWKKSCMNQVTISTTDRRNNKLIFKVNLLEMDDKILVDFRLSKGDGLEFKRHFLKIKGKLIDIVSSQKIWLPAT
How it was run: as §1

YES = YES (Homo sapiens, UniProt P07947)
YES, sequence (P07947 whole entry): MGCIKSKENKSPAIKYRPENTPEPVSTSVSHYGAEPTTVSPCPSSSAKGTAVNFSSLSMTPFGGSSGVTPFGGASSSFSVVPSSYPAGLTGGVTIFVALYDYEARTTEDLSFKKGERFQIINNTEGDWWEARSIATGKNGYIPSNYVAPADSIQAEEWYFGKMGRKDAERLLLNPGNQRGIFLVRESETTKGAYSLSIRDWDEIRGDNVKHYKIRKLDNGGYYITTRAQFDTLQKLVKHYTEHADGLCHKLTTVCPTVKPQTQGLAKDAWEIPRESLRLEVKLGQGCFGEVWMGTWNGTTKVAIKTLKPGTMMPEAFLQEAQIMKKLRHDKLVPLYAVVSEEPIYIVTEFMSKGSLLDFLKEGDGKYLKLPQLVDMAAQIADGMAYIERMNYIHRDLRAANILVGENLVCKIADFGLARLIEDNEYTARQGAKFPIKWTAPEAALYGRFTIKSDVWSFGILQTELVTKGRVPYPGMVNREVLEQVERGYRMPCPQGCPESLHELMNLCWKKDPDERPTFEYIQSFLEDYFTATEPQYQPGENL
How it was run: as §1

PKD2 = molecular target: T2, PKD2 (Homo sapiens, UniProt Q9BZL6)
T2 sequence (Q9BZL6 1-878): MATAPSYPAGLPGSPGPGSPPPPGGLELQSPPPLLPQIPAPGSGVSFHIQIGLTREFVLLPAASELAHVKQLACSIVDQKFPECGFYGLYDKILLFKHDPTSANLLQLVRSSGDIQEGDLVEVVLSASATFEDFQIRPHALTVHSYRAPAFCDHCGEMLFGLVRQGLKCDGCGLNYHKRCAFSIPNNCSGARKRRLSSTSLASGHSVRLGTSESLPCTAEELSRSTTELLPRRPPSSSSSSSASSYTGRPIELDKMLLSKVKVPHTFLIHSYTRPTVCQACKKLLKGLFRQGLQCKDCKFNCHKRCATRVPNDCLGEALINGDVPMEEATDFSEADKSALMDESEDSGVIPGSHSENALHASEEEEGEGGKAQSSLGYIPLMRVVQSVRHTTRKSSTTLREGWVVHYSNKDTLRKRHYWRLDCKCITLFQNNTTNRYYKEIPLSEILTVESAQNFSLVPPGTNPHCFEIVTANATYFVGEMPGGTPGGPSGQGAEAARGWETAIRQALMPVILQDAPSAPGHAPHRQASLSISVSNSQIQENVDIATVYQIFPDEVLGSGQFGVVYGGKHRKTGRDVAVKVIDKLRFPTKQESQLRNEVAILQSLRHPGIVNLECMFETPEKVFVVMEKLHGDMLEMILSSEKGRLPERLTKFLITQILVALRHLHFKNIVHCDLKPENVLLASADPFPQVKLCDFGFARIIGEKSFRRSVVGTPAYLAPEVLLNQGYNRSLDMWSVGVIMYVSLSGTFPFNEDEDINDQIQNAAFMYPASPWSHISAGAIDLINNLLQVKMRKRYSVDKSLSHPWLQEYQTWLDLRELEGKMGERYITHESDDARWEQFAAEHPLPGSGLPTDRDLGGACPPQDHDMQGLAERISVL
How it was run: as §1

CDK5 = CDK5 (Homo sapiens, UniProt Q00535)
CDK5, sequence (Q00535 whole entry): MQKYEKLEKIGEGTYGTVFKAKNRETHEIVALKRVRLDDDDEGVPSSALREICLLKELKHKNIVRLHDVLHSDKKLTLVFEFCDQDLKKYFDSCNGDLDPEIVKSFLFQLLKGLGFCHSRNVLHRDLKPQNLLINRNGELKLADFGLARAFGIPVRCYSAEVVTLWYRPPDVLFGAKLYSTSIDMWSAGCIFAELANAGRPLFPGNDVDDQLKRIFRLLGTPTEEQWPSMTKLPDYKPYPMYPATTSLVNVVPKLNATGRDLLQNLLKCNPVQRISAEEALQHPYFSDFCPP
How it was run: as §1

GSK3A = GSK3A (Homo sapiens, UniProt P49840)
GSK3A, sequence (P49840 whole entry): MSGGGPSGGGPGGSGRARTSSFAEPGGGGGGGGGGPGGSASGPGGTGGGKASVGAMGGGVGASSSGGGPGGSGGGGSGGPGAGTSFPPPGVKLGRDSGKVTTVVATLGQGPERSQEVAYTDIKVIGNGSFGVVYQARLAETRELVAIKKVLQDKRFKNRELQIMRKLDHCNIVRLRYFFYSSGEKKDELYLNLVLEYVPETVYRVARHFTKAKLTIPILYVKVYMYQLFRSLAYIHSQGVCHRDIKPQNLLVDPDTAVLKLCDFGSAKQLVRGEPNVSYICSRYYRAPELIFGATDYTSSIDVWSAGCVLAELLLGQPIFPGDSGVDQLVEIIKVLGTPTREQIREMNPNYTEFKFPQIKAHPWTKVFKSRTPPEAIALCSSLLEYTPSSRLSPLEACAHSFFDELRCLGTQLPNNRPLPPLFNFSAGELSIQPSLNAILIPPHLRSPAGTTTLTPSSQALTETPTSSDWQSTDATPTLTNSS
How it was run: as §1

FER = FER (Homo sapiens, UniProt P16591)
FER, sequence (P16591 whole entry): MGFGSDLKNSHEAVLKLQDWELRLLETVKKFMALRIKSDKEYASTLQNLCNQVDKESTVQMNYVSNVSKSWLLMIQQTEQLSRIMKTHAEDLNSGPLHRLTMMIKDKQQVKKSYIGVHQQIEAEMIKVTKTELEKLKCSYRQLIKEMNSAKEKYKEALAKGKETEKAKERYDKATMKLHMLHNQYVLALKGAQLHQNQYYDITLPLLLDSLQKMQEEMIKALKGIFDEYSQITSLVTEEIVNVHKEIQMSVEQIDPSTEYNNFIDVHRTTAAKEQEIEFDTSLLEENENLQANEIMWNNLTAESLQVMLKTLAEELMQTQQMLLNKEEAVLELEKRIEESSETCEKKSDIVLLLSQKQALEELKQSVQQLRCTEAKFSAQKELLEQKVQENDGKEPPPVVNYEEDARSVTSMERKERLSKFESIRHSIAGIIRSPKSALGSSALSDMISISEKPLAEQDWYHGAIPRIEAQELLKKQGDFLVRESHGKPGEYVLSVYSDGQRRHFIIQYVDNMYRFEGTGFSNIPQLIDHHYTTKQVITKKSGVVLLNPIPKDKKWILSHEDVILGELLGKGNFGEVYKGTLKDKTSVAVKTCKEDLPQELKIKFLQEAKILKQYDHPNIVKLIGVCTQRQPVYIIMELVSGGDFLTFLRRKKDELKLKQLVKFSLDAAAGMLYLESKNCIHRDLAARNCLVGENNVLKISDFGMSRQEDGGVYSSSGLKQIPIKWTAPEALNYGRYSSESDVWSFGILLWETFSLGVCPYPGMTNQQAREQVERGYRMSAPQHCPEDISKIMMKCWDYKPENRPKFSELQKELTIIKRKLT
How it was run: as §1

CS(=O)(=O)Nc1ccccc1Nc1nc(Nc2cccc(OCCN)c2)ncc1Cl [CZC31326, N-(2-(2-(3-(2-aminoethoxy)phenylamino)-5-chloropyrimidin-4-ylamino)phenyl)methanesulfonamide]
Competition % (CDK2): 95.2% | inhibition at 10 µM (TEC): 92.8% | inhibition at 10 µM (MARK3): 97% | inhibition at 10 µM (PLK1): 96.8% | Competition % (CHK1): 94.8% | inhibition at 10 µM (YES): 89.6% | inhibition at 10 µM (PKD2): 98% | inhibition at 10 µM (CDK5): 96.4% | inhibition at 10 µM (GSK3A): 96.9% | inhibition at 10 µM (FER): 97.8%

Reference: US20120270237A9, “METHODS FOR THE IDENTIFICATION OF KINASE INTERACTING MOLECULES AND FOR THE PURIFICATION OF KINASE PROTEINS” (Cellzone AG, priority 2009, published 2012)
